Test results as given in ChEMBL document CHEMBL1147583, “Respiratory syncytial virus inhibitors. Part 2: Benzimidazol-2-one derivatives” (Bioorg Med Chem Lett, 2004).

Columns and labels:
[1] = Therapeutic index expressed as the ratio between CC50 and EC50; assay type: cell-based; settings: human, HEp-2 cells; read-out: Therapeutic index
HEp-2 [2] = assay: Cytotoxic activity against uninfected HEp-2 human […] epithelial carcinoma cell line; assay type: functional
HEp-2 [3] = assay: Antiviral activity against respiratory syncytial virus in HEp-2 human […] epithelial carcinoma cell line; assay type: functional, cell-based

| SMILES | selectivity ratio [1] | CC50 (HEp-2 [2]) | EC50 (HEp-2 [3]) |
| --- | --- | --- | --- |
| CC(C)CCn1c(Cn2c(=O)n(CCCCCC#N)c3ccccc32)nc2ccccc21 | 536 | 13400 nM | 25 nM |
| CC(C)n1c(=O)n(Cc2nc3ccccc3n2CCCCCCC#N)c2ccccc21 | > 37800 | > 189000 nM | 5 nM |
| CC(C)CCn1c(Cn2c(=O)n(Cc3ccc(C(=O)N(C)C)cc3)c3ccccc32)nc2ccccc21 | 1270 | 26600 nM | 21 nM |
| CCNC(=O)n1c(=O)n(Cc2nc3ccccc3n2CCC(C)C)c2ccccc21 | 359 | 18700 nM | 52 nM |
| CS(=O)(=O)CCCn1c(Cn2c(O)nc3ccccc32)nc2ccccc21 | 144 | 216000 nM | 1490 nM |
| C=C(C)n1c(=O)n(Cc2nc3ccccc3n2CCC(C)=O)c2ccccc21 | 48900 | 245000 nM | 5 nM |
| CC(C)CCn1c(Cn2c(=O)n(Cc3ccc(O)cc3)c3ccccc32)nc2ccccc21 | 3330 | 59900 nM | 18 nM |
| CCn1c(=O)n(Cc2nc3ccccc3n2CC(O)c2ccccc2)c2ccccc21 (configuration not stated) | > 6500 | > 241000 nM | 37 nM |
| CCn1c(=O)n(Cc2nc3ccccc3n2CCO)c2ccccc21 | 279 | 64100 nM | 229 nM |
| C=C(C)n1c(=O)n(Cc2nc3ccccc3n2CCCC#N)c2ccccc21 | – | – | 5 nM |
| CC(C)n1c(=O)n(Cc2nc3ccccc3n2CCC#N)c2ccccc21 | 9190 | 73500 nM | 8 nM |
| CC(C)CCn1c(Cn2c(=O)n(C(=O)NCc3ccccc3)c3ccccc32)nc2ccccc21 | 74 | 6440 nM | 86 nM |
| CC(C)CCn1c(Cn2c(=O)n(Cc3ccc(C#N)cc3)c3ccccc32)nc2ccccc21 | 465 | 5590 nM | 12 nM |
| CC(C)CCn1c(Cn2c(=O)n(CCCC#N)c3ccccc32)nc2ccccc21 | 1490 | 59600 nM | 40 nM |
| CCn1c(=O)n(Cc2nc3ccccc3n2CCCO)c2ccccc21 | 17900 | 179000 nM | 10 nM |
| CCn1c(=O)n(Cc2nc3ccccc3n2CCCCO)c2ccccc21 | 11000 | 154000 nM | 14 nM |
| CC(C)CCn1c(Cn2c(O)nc3ccccc32)nc2ccccc21 | 1070 | 61100 nM | 57 nM |
| CS(=O)(=O)CCCn1c(Cn2c(=O)n(CCCCC#N)c3ccccc32)nc2ccccc21 | > 3020 | > 214000 nM | 71 nM |
| CCn1c(=O)n(Cc2nc3ccccc3n2CC(=O)c2ccccc2)c2ccccc21 | 241 | 27100 nM | 112 nM |
| C=C(C)n1c(=O)n(Cc2nc3ccccc3n2CCCS(C)(=O)=O)c2ccccc21 | 4110 | 123000 nM | 30 nM |
| CCn1c(=O)n(Cc2nc3ccccc3n2CCC(C)C)c2ccccc21 | 1690 | 18600 nM | 11 nM |
| C=C(C)n1c(=O)n(Cc2nc3ccccc3n2CCC(C)O)c2ccccc21 (configuration not stated) | 6130 | 172000 nM | 28 nM |
| N#CCCCCn1c(=O)n(Cc2nc3ccccc3n2CCCC#N)c2ccccc21 | > 9090 | > 242000 nM | 25 nM |
| CC(C)CCn1c(Cn2c(=O)n(Cc3ccc(S(C)(=O)=O)cc3)c3ccccc32)nc2ccccc21 | 833 | 7500 nM | 9 nM |
| CCOC(=O)n1c(=O)n(Cc2nc3ccccc3n2CCC(C)C)c2ccccc21 | 193 | 57700 nM | 298 nM |
| C=C(C)n1c(=O)n(Cc2nc3ccccc3n2CCCCC#N)c2ccccc21 | 7140 | 193000 nM | 27 nM |
| CC(C)CCn1c(Cn2c(=O)n(S(=O)(=O)C(C)C)c3ccccc32)nc2ccccc21 | 260 | 16900 nM | 65 nM |

| SMILES | selectivity ratio [1] | CC50 (HEp-2 [2]) | EC50 (HEp-2 [3]) |
| --- | --- | --- | --- |
| N#Cc1ccc(Cn2c(=O)n(Cc3nc4ccccc4n3CCCCO)c3ccccc32)cc1 | 739 | 39200 nM | 53 nM |
| CC(C)CCn1c(Cn2c(=O)n(S(C)(=O)=O)c3ccccc32)nc2ccccc21 | 2330 | 16300 nM | 7 nM |
| CC(C)CCn1c(Cn2c(=O)n(CC#N)c3ccccc32)nc2ccccc21 | 1670 | 46800 nM | 28 nM |
| C=C(C)n1c(=O)n(Cc2nc3ccccc3n2CCCCCC#N)c2ccccc21 | 946 | 12300 nM | 13 nM |
| CC(C)CCn1c(Cn2c(=O)n(Cc3cc(I)c(O)c(I)c3)c3ccccc32)nc2ccccc21 | > 209 | > 144000 nM | 686 nM |
| N#CCCn1c(Cn2c(O)nc3ccccc32)nc2ccccc21 | > 3130 | > 310000 nM | 99 nM |
| C=C(C)n1c(=O)n(Cc2nc3ccccc3n2CCC#N)c2ccccc21 | 5310 | 79600 nM | 15 nM |
| CC(=O)n1c(=O)n(Cc2nc3ccccc3n2CCC(C)C)c2ccccc21 | 162 | 116000 nM | 710 nM |
| CC1(CCn2c(Cn3c(=O)n(Cc4cc(I)c(O)c(I)c4)c4ccccc43)nc3ccccc32)N=N1 | 713 | 27100 nM | 38 nM |
| C=CCn1c(=O)n(Cc2nc3ccccc3n2CCC(C)C)c2ccccc21 | 800 | 12800 nM | 16 nM |
| C=C(C)n1c(=O)n(Cc2nc3ccccc3n2CCCCO)c2ccccc21 | 42700 | 171000 nM | 4 nM |
| CC(C)CCn1c(Cn2c(=O)n(C(=O)Nc3ccccc3)c3ccccc32)nc2ccccc21 | 526 | 21600 nM | 41 nM |
| OCCCCn1c(Cn2c(O)nc3ccccc32)nc2ccccc21 | > 971 | > 168000 nM | 173 nM |
| CC(C)n1c(=O)n(Cc2nc3ccccc3n2CCCCO)c2ccccc21 | 6210 | 68300 nM | 11 nM |
| CC(C)CCn1c(Cn2c(=O)n(Cc3ccc(S(=O)(=O)N(C)C)cc3)c3ccccc32)nc2ccccc21 | > 38200 | > 153000 nM | 4 nM |
| C=C(C)n1c(=O)n(Cc2nc3ccccc3n2CCCCCCO)c2ccccc21 | > 2170 | > 247000 nM | 114 nM |
| CC(C)CCn1c(Cn2c(=O)n(S(=O)(=O)N(C)C)c3ccccc32)nc2ccccc21 | 437 | 27100 nM | 62 nM |
| CC(C)CCn1c(Cn2c(=O)n(CCCCC#N)c3ccccc32)nc2ccccc21 | 428 | 15000 nM | 35 nM |
| CC1(CCn2c(Cn3c(=O)n(Cc4ccc(O)cc4)c4ccccc43)nc3ccccc32)N=N1 | > 28000 | > 220000 nM | 4 nM |
| CC(=O)CCn1c(Cn2c(O)nc3ccccc32)nc2ccccc21 | 1560 | 299000 nM | 191 nM |
| CC(C)CCn1c(Cn2c(=O)n(C(N)=O)c3ccccc32)nc2ccccc21 | 2670 | 134000 nM | 50 nM |
| CS(=O)(=O)CCCn1c(Cn2c(=O)n(CCCCO)c3ccccc32)nc2ccccc21 | > 2490 | > 229000 nM | 92 nM |
| CC(O)CCn1c(Cn2c(O)nc3ccccc32)nc2ccccc21 (configuration not stated) | > 629 | > 262000 nM | 416 nM |
| C=C(C)n1c(=O)n(Cc2nc3ccccc3n2CCC(C)C)c2ccccc21 | 6180 | 24700 nM | 4 nM |
| C=C(C)n1c(=O)n(Cc2nc3ccccc3n2CCCCCCC#N)c2ccccc21 | > 6000 | 36000 nM | 6 nM |
| N#CCCn1c(Cn2c(=O)n(-c3ccccc3)c3ccccc32)nc2ccccc21 | 17400 | 87000 nM | 5 nM |
